We go through one compound from patent publication US9662338B2, “Formulations of viloxazine” (Supernus Pharmaceuticals, Inc., priority 2012, dated 2017).

The conditions of this experiment: steady state plasma levels at both 150 mg and 300 mg total daily dose; IR capsules TID. How it is done: A randomized, double blind, multicenter, placebo controlled clinical study was conducted to evaluate the efficacy of viloxazine in adults with ADHD. […] Subjects not tolerating the 300 mg/day dose were allowed at any time of the treatment phase to down titrate to 1 capsule TID for a total daily dose of 150 mg viloxazine base. […] Plasma samples were obtained up to six hours following dosing.

As to `CCOc1ccccc1OCC1CNCCO1` (racemic) [viloxazine, (RS)-2-[(2-ethoxyphenoxy)methyl]morpholine], the “clinical efficacy in adults with ADHD” value is listed as “demonstrated clinical efficacy”.
